Experimental data from US4720483A, “Oligopeptides and intermediates and processes for their manufacture” (Ciba-Geigy Corporation, priority 1985, dated 1988).
Structures can show the parent of a compound that is named as a salt.

Experiment: vasodilatory and cardiovascular actions in femtomol dosages, with and without blockers of the sympathetic nervous system
Type: in vivo
Conditions: blocker of the sympathetic nervous system
Excerpt: In femtomol dosages, the peptide-amides according to the invention have a vasodilatory action and result in a reduction of the blood pressure and an increase in the heart rate and in the contractility of the myocardium. The actions are not affected by blockers of the sympathetic nervous system, for example metoprolol [1-isopropylamino-3-(4-{2-methoxyethyl}phenoxy)-propan-2-ol] and Trandate® (labetalol hydrochloride), whereas the action of noradrenalin and of adrenalin in serum is suppressed by those substances.

Row | Structure (SMILES) | action of noradrenalin and of adrenalin in serum
1 | CC(CCc1ccccc1)NCC(O)c1ccc(O)c(C(N)=O)c1 (centres unmarked) [Trandate, labetalol hydrochloride] | suppressed
2 | COCCc1ccc(OCC(O)CNC(C)C)cc1 (centres unmarked) [metoprolol, 1-isopropylamino-3-(4-{2-methoxyethyl}phenoxy)-propan-2-ol] | suppressed
